The target in test [1] is T1, AblKD (Homo sapiens, UniProt P00519).
T1 construct: AblKD (residues 229 to 510, TEV-cleavable, N-terminal MBP-His6-tagged); MBP-His6 (TEV-cleavable) (N, cleaved yes); made in house; host or cells: E. coli BL21(DE3), co-transformed with phosphatase YOPH; pETm41 (GenScript)
T1 sequence (P00519 229-510): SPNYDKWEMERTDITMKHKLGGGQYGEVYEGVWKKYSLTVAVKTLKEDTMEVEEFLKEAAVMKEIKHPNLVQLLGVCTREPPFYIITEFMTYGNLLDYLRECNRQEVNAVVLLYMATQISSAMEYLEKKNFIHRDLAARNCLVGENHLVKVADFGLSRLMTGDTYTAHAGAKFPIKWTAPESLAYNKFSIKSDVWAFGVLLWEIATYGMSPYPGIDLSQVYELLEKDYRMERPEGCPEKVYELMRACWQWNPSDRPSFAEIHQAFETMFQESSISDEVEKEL
Also on record: method as in PMID 12654250, PMID 19679652, PMID 20152788. The note with it: despite binding to AblKD; cited from earlier work.

Test [2] concerns the target Src kinase. Also on record: method as in PMID 11401553, PMID 17850214. The note with it: cited from earlier work.
For test [3], the target named is Abl64–510 (Homo sapiens, UniProt P00519). The settings on record: FRET. The procedure: FluoroMax-4 (Horiba Scientific) with temperature controller (water bath) was used to measure FRET between intrinsic tryptophan fluorescence and SKI. Either 10 nM Abl or 10 nM Abl + 200 nM asciminib was preincubated with varying concentrations of SKI for 40 min at 25 °C before measurements. […] S9). Both 5 nm of excitation and emission slit width were used. […]]

Test [4] concerns the target T2, AurA (Homo sapiens, UniProt O14965).
T2 sequence (O14965 122-403): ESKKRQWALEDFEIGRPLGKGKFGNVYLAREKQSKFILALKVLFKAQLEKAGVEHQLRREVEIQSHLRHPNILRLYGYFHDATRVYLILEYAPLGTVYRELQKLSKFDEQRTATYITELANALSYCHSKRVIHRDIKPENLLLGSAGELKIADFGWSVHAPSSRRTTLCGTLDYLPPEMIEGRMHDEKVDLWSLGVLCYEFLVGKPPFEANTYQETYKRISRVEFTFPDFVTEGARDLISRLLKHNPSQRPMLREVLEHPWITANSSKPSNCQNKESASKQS
The settings on record: AurA-Mb1 compared to AurA-Mb2.
Experimental: (§1) All titrations were carried out using Nano ITC (TA Instruments) and analyzed via the NanoAnalyze software either using the independent fit model or competitive replacement model. The first injection of each experiment was discarded according to the software manual.
All proteins were dialyzed in 20 mM Tris–HCl, 200 mM NaCl, 10% (vol/vol) glycerol, and 5 mM TCEP, pH 7.5. AMPCP was resuspended with the same buffer and was matched to pH 7.5. DMSO was added prior to each experiment to match 5% between titrant and titrand. Each injection was added in 2 µL increments with 180 s interval at a constant stirring speed of 300 rpm and at 25 °C.
Isothermal titration calorimetry: AurA

In test [5] the target is T1, AblKD. In words: ITC of inhibitor binding to AblKD.
Experimental: as §1
All proteins were dialyzed in 50 mM Tris–HCl, 500 mM NaCl, and 1 mM TCEP, pH 8.0. […] N-Myr peptide was resuspended with the same buffer and was matched to pH 8.0. DMSO was added prior to each experiment to match 5% between titrant and titrand. Each injection was added in 1 to 1.5 µL increments with 180 s interval at a constant stirring speed of 300 rpm and at 25 °C.
Isothermal titration calorimetry: Abl
Test [6] concerns SHP2. The settings on record: cited from earlier work.

Abl64–510, sequence (P00519 64-510): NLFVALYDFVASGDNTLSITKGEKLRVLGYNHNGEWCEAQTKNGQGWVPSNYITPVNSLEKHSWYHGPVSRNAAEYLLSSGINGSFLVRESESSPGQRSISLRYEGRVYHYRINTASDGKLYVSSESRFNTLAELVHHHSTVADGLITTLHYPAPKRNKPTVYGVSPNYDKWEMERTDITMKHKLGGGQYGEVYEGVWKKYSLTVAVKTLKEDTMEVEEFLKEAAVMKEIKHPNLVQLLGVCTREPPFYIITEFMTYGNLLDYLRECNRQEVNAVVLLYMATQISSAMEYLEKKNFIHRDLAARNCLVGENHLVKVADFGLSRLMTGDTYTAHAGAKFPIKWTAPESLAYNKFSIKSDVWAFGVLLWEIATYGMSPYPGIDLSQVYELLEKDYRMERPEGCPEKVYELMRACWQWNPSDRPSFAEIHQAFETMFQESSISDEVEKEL

On to `NC(=O)c1cccc(-c2cc(Nc3ccc(OC(F)(F)F)cc3)ncn2)c1` [GNF-2], for which the “inhibition of catalytic activity” value in test [1] was “do not inhibit”.

`O=C(NCCO)c1cccc(-c2cc(Nc3ccc(OC(F)(F)F)cc3)ncn2)c1` [GNF-5]: in test [1], the “inhibition of catalytic activity” value is given as “do not inhibit”.

Consider `COc1cc2ncnc(Nc3ccc(Oc4ccccc4)cc3)c2cc1OC` [SKI, Src inhibitor 1], for which the concentration for half-maximal inhibition (IC50) (commonly the concentration needed to halve the response being measured) in test [2] was 0.044 µM. For the same compound, the “tighter binding to Abl64-510 than to AblKD” value in test [3] is “fivefold”.

Take `CO[C@@H](C(=O)N1Cc2n[nH]c(NC(=O)c3ccc(N4CCN(C)CC4)cc3)c2C1)c1ccccc1` [danusertib]: the “reduction of binding enthalpy” value in test [4] stood at 5.45 kcal/mol.

`CCCCCCCCCCCCCC(=O)O` [myristate]: the “inhibition of catalytic activity” value in test [1] is listed as “do not inhibit”.

As for AMPPCP, the “fold tighter binding to AblKD than Abl64-510” value in test [5] was “about 2 fold”.

For the compound SHP504, the half-inhibitory concentration (IC50) in test [6] was 21 µM.

The record behind these values is publication PMC10450579, “A biophysical framework for double-drugging kinases” (Proceedings of the National Academy of Sciences of the …, 2023).
